Measurements taken from paper doi:10.1101/2024.08.25.609621 (bioRxiv, 2024).
Where two headings read alike, the source gives them in different places.

Molecular target: SARS-CoV-2 NSP3 macrodomain (Mac1) (Severe acute respiratory syndrome coronavirus 2, UniProt P0DTD1)
Assay: biochemical
Type: binding
Conditions: for Ki: read-out: SARS CoV-2 macrodomain HTRF assay: Ki; for Ligand efficiency (binding enery per heavy atom): from SARS CoV-2 macrodomain HTRF assay
[1] = Dose-response, SARS CoV-2 macrodomain HTRF assay, read-out: IC50
[2] = Single dose, 200 μM, mean of three technical replicates
[3] = Single dose, concentration 200 μM, read-out: Average % competition
[4] = preliminary screen, compound at 200 μM, mean of 3-4 technical replicates, read-out: % competition in HTRF assay
[5] = Single dose, concentration 200 μM, read-out: SARS CoV-2 macrodomain HTRF assay: Average % competition
[6] = dose-response, read-out: SARS CoV-2 macrodomain HTRF assay: IC50

N#Cc1cnc(CSc2nc(-c3ccccc3)co2)nc1N [AVI-332]
Average % competition: <10%

O=C(O)c1ccc2c(c1)C(NC(=O)C1CCn3ncnc3C1)CCC2 (stereo not drawn) [AVI-333]
Average % competition: 21%

CC1CCCC1OC(=O)Cn1cnc2c1c(=O)n(C)c(=O)n2C (stereo not drawn) [AVI-335]
Average % competition: <10%

Cc1ccc(N2CCN(c3ncnc(-c4ccccc4)n3)CC2=O)cc1 [AVI-336]
Average % competition: <10%

CC(C(=O)NCc1c(C(=O)O)[nH]c2ccccc12)n1cncn1 (stereo not drawn) [AVI-337]
Average % competition: 14%

Nc1cc(N2CCC3CCCCC3C2)ncn1 (stereo not drawn) [AVI-339]
IC50 [1]: > 1000 µM | Average % competition [2]: <10%

CC1(c2ccc(F)cc2)CN(C(=O)c2cnc(N)nc2C(F)(F)F)C1 [AVI-340]
Average % competition: 20%

Cn1ccc2cc(NC(=O)C3CC(=O)NC4CCCCC43)ccc21 (stereo not drawn) [AVI-342]
Average % competition: <10%

Cc1nc(N)ncc1C(=O)NCC(O)Cc1ccc(Cl)cc1 (stereo not drawn) [AVI-343]
Average % competition: <10%

COc1ccc(-c2nccc(N3CCC(c4ccsc4)CC3)n2)cc1 [AVI-344]
Average % competition: <10%

O=c1[nH]c2ccccc2cc1CNc1nc(C2CC2)ns1 [AVI-346]
IC50 [1]: > 1000 µM | Average % competition [2]: <10%

Cc1ccc(CC(=O)N2CCSC23CC(C(=O)O)C3)cc1O (stereo not drawn) [AVI-347]
Average % competition: <10%

CC(NC(=O)c1ccc(N)nc1Cl)C(O)c1cccc(F)c1 (stereo not drawn) [AVI-349]
Average % competition: 15%

O[C@@]1(Cn2ccnn2)CCCN(c2ncnc3[nH]ccc23)C1 [AVI-608]
inhibition at 200 µM [3]: 8% | inhibition at 200 µM [4]: < 10%

O[C@@H]1CNCC[C@H]1Nc1ncnc2[nH]ccc12 [AVI-613]
inhibition at 200 µM [3]: < 10% | inhibition at 200 µM [4]: < 10%

CN(C)C[C@@]1(O)CCCN(c2ncnc3[nH]ccc23)C1 [AVI-614]
inhibition at 200 µM [3]: < 10% | inhibition at 200 µM [4]: < 10%

O[C@H]1CNCC[C@@H]1Nc1ncnc2[nH]ccc12 [AVI-615]
inhibition at 200 µM [5]: < 10% | inhibition at 200 µM [4]: < 10%

O=C(O)C(F)(F)F.OC1c2ccccc2CC1Nc1ncnc2[nH]ccc12 (stereo not drawn) [AVI-3634]
inhibition at 200 µM [3]: < 10% | inhibition at 200 µM [4]: < 10%

O=C(O)C(F)(F)F.OCC(Nc1ncnc2[nH]ccc12)C1CCCO1 (stereo not drawn) [AVI-3645]
inhibition at 200 µM [3]: 54% | inhibition at 200 µM [4]: 54%

O=C(O)C(F)(F)F.OC[C@@H](CCc1ccccc1)Nc1ncnc2[nH]ccc12 [AVI-3654]
inhibition at 200 µM [3]: 27% | inhibition at 200 µM [4]: 27%

CC(C)CCC(CO)Nc1ncnc2[nH]ccc12.O=C(O)C(F)(F)F (stereo not drawn) [AVI-3668]
inhibition at 200 µM [3]: 38% | inhibition at 200 µM [4]: 38%

O=[N+]([O-])c1ccc(C(O)C(CO)Nc2ncnc3[nH]ccc23)cc1 (stereo not drawn) [AVI-3672]
inhibition at 200 µM [3]: 43% | inhibition at 200 µM [4]: 43%

O=C(O)C(F)(F)F.OCC(CC1CCOCC1)Nc1ncnc2[nH]ccc12 (stereo not drawn) [AVI-3676]
inhibition at 200 µM [3]: < 10% | inhibition at 200 µM [4]: < 10%

O=C(O)C(F)(F)F.OCC(Nc1ncnc2[nH]ccc12)C(O)C1CCCCC1 (stereo not drawn) [AVI-3687]
inhibition at 200 µM [3]: 33% | inhibition at 200 µM [4]: 33%

O=C(O)C(F)(F)F.OCC(Cc1cccc(F)c1)Nc1ncnc2[nH]ccc12 (stereo not drawn) [AVI-3706]
inhibition at 200 µM [3]: 77% | inhibition at 200 µM [4]: 77%

O=C(O)C(F)(F)F.OCC1C2C=CC(C2)N1c1ncnc2[nH]ccc12 (stereo not drawn) [AVI-3712]
inhibition at 200 µM [5]: 55% | inhibition at 200 µM [4]: 55%

CC(C)(C)C(O)CC(CO)Nc1ncnc2[nH]ccc12.O=C(O)C(F)(F)F (stereo not drawn) [AVI-3714]
inhibition at 200 µM [3]: < 10% | inhibition at 200 µM [4]: < 10%

OCC1CCC2(CCOCC2)CN1c1ncnc2[nH]ccc12 (stereo not drawn) [AVI-4065]
IC50 [6]: 430 µM | Ki (dose-response): 400 µM | Ligand efficiency (binding enery per heavy atom): 0.21

CC1(C)CCC(O)(CNc2ncnc3[nH]ccc23)CC1 [AVI-4310]
IC50 [6]: 76 µM | Ki (dose-response): 71 µM | Ligand efficiency (binding enery per heavy atom): 0.29

OC1(CNc2ncnc3[nH]ccc23)CCC2(CC1)OCCO2 [AVI-4315]
IC50 [6]: 210 µM | Ki (dose-response): 200 µM | Ligand efficiency (binding enery per heavy atom): 0.23

CC(Nc1ncnc2[nH]ccc12)C1(O)CCCCC1 (stereo not drawn) [AVI-4321]
IC50 [6]: 48 µM | Ki (dose-response): 45 µM | Ligand efficiency (binding enery per heavy atom): 0.32

Cc1c[nH]c2ncnc(NCC3(O)CCC(C)(C)CC3)c12 [AVI-4330]
IC50 [6]: 650 µM | Ki (dose-response): 610 µM | Ligand efficiency (binding enery per heavy atom): 0.21

OCC1(Nc2ncnc3[nH]ccc23)COC1 [AVI-5649]
inhibition at 200 µM [3]: < 10% | inhibition at 200 µM [4]: < 10%

Nc1cccc(CSC2CCc3ccccc32)n1 (stereo not drawn) [AVI-6015]
IC50 (read-out: IC50): > 1000 µM

CC(O)C1CCN(c2cc(N3CCC(c4ccccc4)CC3C)ncn2)C1 (stereo not drawn) [AVI-6016]
IC50 (read-out: IC50): > 1000 µM

Nc1ncnc(N2CCCCC3(CCC3)C2)c1Cl [AVI-6017]
IC50 (read-out: IC50): > 1000 µM

Cc1ccc(C(=O)O)cc1NCc1ccc2nsnc2c1 [AVI-6018]
IC50 (read-out: IC50): > 1000 µM

O=C1OC(CSC2CCC(O)C2)CN1C1CCCCC1 (stereo not drawn) [AVI-6019]
IC50 (read-out: IC50): > 1000 µM

Cn1c(=O)[nH]c(=O)c2c1nc(Br)n2CC(=O)C1CCC(F)(F)CC1 [AVI-6020]
IC50 (read-out: IC50): > 1000 µM
